The record followed here is patent US5175159A, “3-substituted-1,4-benzodiazepines as oxytocin antagonists” (Merck & Co., Inc., priority 1990, dated 1992).

As a reminder, the IC50 is the concentration needed to halve the response being measured. For orientation: inhibition means the relative decrease from the control value, in per cent.

In one test the target is T1, oxytocin receptor (Rattus norvegicus, UniProt P70536).
T1 construct: crude membrane preparation of rat uterus as the source of oxytocin receptors; from tissue; host or cells: rat uterus, crude membrane preparation
T1 sequence (P70536 1-388): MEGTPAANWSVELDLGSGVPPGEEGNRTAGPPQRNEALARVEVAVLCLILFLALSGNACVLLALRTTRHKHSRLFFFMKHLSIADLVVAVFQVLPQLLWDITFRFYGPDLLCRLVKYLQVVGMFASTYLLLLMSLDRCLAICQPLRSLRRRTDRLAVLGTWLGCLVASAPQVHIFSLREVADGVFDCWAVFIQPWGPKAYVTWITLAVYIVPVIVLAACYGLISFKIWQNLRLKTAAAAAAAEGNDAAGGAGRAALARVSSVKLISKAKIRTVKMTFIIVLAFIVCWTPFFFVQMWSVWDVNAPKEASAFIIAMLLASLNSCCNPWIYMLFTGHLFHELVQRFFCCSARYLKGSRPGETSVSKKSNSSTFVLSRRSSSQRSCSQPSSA
The experiment in a line: [^3H]Oxytocin Binding Assay (crude membrane preparation of rat uterus).
Settings: not given
The source says: The biological activities of the compounds of Formula I have been evaluated using a[^3 H]oxytocin binding assay.
[^3 H]Oxytocin Binding Assay
Oxytocin receptors have been identified in mammalian uterine tissue through the use of in vitro radioligand binding assays. These receptor binding sites mediate the contractile response of the uterine myometrium to oxytocin. The present radioligand binding procedure has been adapted from the methods of Soloff, M. S. and Grzonka, Z., Endocrinology 119: 1564-1569 (1986) and Fuchs, A-R., Fuchs, F., and Soloff, M. S., J. Clinical Endocrinology and Metabolism 60: 37-41 (1985) and is utilized here to measure the relative affinity of test compounds for the oxytocin receptor labeled by [^3 H]oxytocin. The assay uses a crude membrane preparation of rat uterus as the source of oxytocin receptors. The IC50 values (concentration of test compound to inhibit [^3 H]oxytocin binding by 50%) are determined by incubating uterine tissue with [^3 H]oxytocin in the presence or absence of varying concentrations of compound.
For `CN1C(=O)C(NS(=O)(=O)C[C@@]23CC[C@@H](CC2=O)C3(C)C)N=C(c2ccccc2)c2ccccc21` (stereo partly drawn) [Example 9, (1R-(1.ALPHA.(RS),4.ALPHA.))-N-(2,3-DIHYDRO-1-METHYL-2-OXO-5-PHENYL-1H-1,4- BENZODIAZEPIN-3-YL)-7,7-DIMETHYL-2-OXO-BICYCLO(2.2.1)HEPTANE-1-METHANESULFONAMIDE], the IC50 stood at 3.6 µM.
On the same count and under the same terms, to `CN1C(=O)C(NC(=O)CC23CC4CC(CC(C)(C4)C2)C3)N=C(c2ccccc2)c2ccccc21` (racemic) [Example 7, (+/-)-N-(2,3-DIHYDRO-1-METHYL-2-OXO-5-PHENYL-1H-1,4-BENZODIAZEPIN-3-YL)-3-METHYLTRICYCLO(3.3.1.1(3,7))DECANE-1-ACETAMIDE] belongs 4.7 µM; to `CN1C(=O)[C@H](NC(=O)NC23CC4CC(CC(C4)C2)C3)N=C(c2ccccc2)c2ccccc21` (single isomer, unassigned) [Example 3], 1.69 µM; to `CN1C(=O)C(NC(=O)C23CC4CC(CC(C4)C2)C3)N=C(c2ccccc2)c2ccccc21` (racemic) [Example 4, (+/-)-N-(2,3-DIHYDRO-1-METHYL-2-OXO-5-PHENYL-1H-1,4-BENZODIAZEPIN-3-YL)-TRICYCLO(3.3.1.1(3,7))DECANE-1-CARBOXAMIDE], 13.8 µM.
`CN1C(=O)C(NS(=O)(=O)C[C@]23CC[C@H](CC2=O)C3(C)C)N=C(c2ccccc2)c2ccccc21` (stereo partly drawn) [Example 8, (1S)-(1.ALPHA.(RS),4.ALPHA.))-N-(2,3-DIHYDRO-1-METHYL-2-OXO-5-PHENYL-1H-1,4-BENZODIAZEPIN-3-YL)-7,7-DIMETHYL-2-OXO-BICYCLO(2.2.1)HEPTANE-1-METHANESULFONAMIDE] registered an IC50 of 4.6 µM.
Same read-out and setting: to `CN1C(=O)C(NC(=O)CC23CC4CC(CC(C4)C2)C3)N=C(c2ccccc2)c2ccccc21` (racemic) [Example 5, (+/-)-N-(2,3-DIHYDRO-1-METHYL-2-OXO-5-PHENYL-1H-1,4-BENZODIAZEPIN-3-YL)-TRICYCLO(3.3.1.1(3,7))DECANE-1-ACETAMIDE)] belongs 2.8 µM; to `CN1C(=O)C(NC(=O)NCC23CC4CC(CC(C4)C2)C3)N=C(c2ccccc2)c2ccccc21` (racemic) [Example 6, (+/-)-N-(2,3-DIHYDRO-1-METHYL-2-OXO-5-PHENYL-1H-1,4-BENZODIAZEPIN-3-YL)-N'- TRICYCLO(3.3.1.1(3,7))DEC-1-YL-METHYL)-UREA], 2.7 µM; to `CN1C(=O)[C@H](NS(=O)(=O)C[C@@]23CC[C@@H](CC2O)C3(C)C)N=C(c2ccccc2)c2ccccc21` (single isomer, unassigned) [Example 16A, N-(2,3-DIHYDRO-1-METHYL-2-OXO-5-PHENYL-1H-1,4-BENZODIAZEPIN-3-YL)-2-HYDROXY-7,7-DIMETHYL-BICYCLO(2.2.1) HEPTANE-1-METHANESULFONAMIDE, ISOMER A AND ISOMER B], 1.4 µM.
For the compound `CN1C(=O)C(NC(=O)NC2C3CC4CC(C3)CC2C4)N=C(c2ccccc2)c2ccccc21` (racemic) [Example 1, (+/-)-N-(2,3-DIHYDRO-1-METHYL-2-OXO-5-PHENYL-1H-1,4-BENZODIAZEPIN-3-YL)-N'- TRICYCLO(3.3.1.1(3,7))DEC-2-YL-UREA], the IC50 stood at 3.9 µM.
`CN1C(=O)C(NC(=O)NC2C3CC4CC(C3)CC2C4)N=C(c2ccccc2)c2ccccc21` (single isomer, unassigned; (+)) [Example 2, (+)-N-(2,3-DIHYDRO-1-METHYL-2-OXO-5-PHENYL-1H-1,4-BENZODIAZEPIN-3-YL)-N'-TRICYCLO(3.3.1.1(3,7))DEC-2-YL-UREA]: the IC50 worked out at 1.6 µM.
Still for that read-out and setting: then `CN1C(=O)[C@@H](NS(=O)(=O)C[C@@]23CC[C@@H](CC2O)C3(C)C)N=C(c2ccccc2)c2ccccc21` (stereo partly drawn) [Example 17, N-(2,3-DIHYDRO-1-METHYL-2-OXO-5-PHENYL-1H-1,4-BENZODIAZEPIN-3-YL)-2-HYDROXY-7,7-DIMETHYL-BICYCLO(2.2.1) HEPTANE-1-METHANESULFONAMIDE], with 2.5 µM; and `CN1C(=O)[C@H](NS(=O)(=O)C[C@@]23CC[C@@H](CC2=O)C3(C)C)N=C(c2ccccc2)c2ccccc21` [Example 15, (1R-(1.ALPHA.(S*),4.ALPHA.))-N-(2,3-DIHYDRO-1-METHYL-2-OXO-5-PHENYL-1H-1,4- BENZODIAZEPIN-3-YL)-7,7-DIMETHYL-2-OXO-BICYCLO(2.2.1)HEPTANE-1-METHANESULFONAMIDE], with 1.4 µM.

Still in this test, the particulars now being: [^3H]oxytocin binding, rat uterus membranes; @ 10 μM.
As to `CN1C(=O)[C@@H](NC(=O)CC2C3CCC(C)(C2O)C3(C)C)N=C(c2ccccc2)c2ccccc21` (single isomer, unassigned) [Example 22B], the “% inhibition @ μM conc. (10 μM)” value was determined as 41%.

Staying with this test, now noted: [^3H]oxytocin binding, rat uterus membranes; @ 10 μM; read-out: % inhibition @ μM conc. (10 μM).
Turning to `CN1C(=O)CN(C(=O)NC2C3CC4CC(C3)CC2C4)C(c2ccccc2)c2ccccc21` (racemic) [Example 13, (+/-)-1,2,3,5-TETRAHYDRO-1-METHYL-2-OXO-5-PHENYL-N-TRICYCLO(3.3.1.1(3,7))DEC-2-YL-4H-1,4-BENZODIAZEPINE-4-CARBOXAMIDE], the inhibition at 10 µM was found to be 48%.
The same measure, in the same setting: to `CN1C(=O)CN(C(=O)NCC23CC4CC(CC(C4)C2)C3)C(c2ccccc2)c2ccccc21` (racemic) [Example 12, (+/-)-1,2,3,5-TETRAHYDRO-1-METHYL-2-OXO-5-PHENYL-N-(TRICYCLO(3.3.1.1.(3,7))DEC-1-YLMETHYL)-4H-1,4-BENZODIAZEPINE-4-CARBOXAMIDE] belongs 66%.

Still in this test, the particulars now being: read-out: % inhibition @ μM conc. (1 μM), [^3H]oxytocin binding, rat uterus membranes; @ 1 μM.
Turning to `CN1C(=O)[C@H](NC(=O)CC2C(=O)C3(C)CCC2C3(C)C)N=C(c2ccccc2)c2ccccc21` (single isomer, unassigned) [Example 19], the inhibition at 1 µM came to 39%.
The same measure, in the same setting: to `CN1C(=O)[C@H](NC(=O)C2C(=O)C3(C)CCC2C3(C)C)N=C(c2ccccc2)c2ccccc21` (stereo partly drawn) [Example 23, [3(R)-N-(2,3-DIHYDRO-1-METHYL-2-OXO-5-PHENYL-1H-1,4-BENZODIAZEPIN-3-YL)]-2- OXO-1,7,7-TRIMETHYLBICYCLO(2.2.1)HEPTANE-3-CARBOXAMIDE] belongs 35%; to `CN1C(=O)[C@H](NS(=O)(=O)C[C@]23CC[C@H](CC2=O)C3(C)C)N=C(c2ccccc2)c2ccccc21` [Example 20, (1S-(1.ALPHA.(S*),4.ALPHA.))-N-(2,3-DIHYDRO-1-METHYL-2-OXO-5-PHENYL-1H-1,4- BENZODIAZEPIN-3-YL)-7,7-DIMETHYL-2-OXO-BICYCLO(2.2.1)HEPTANE-1-METHANESULFONAMIDE], 35%.

The test is the same for the next values; noted with them: read-out: % inhibition @ μM conc. (10 μM), [^3H]oxytocin binding, rat uterus membranes; @ 10 μM.
For `CN1C(=O)[C@@H](NS(=O)(=O)C[C@]23CC[C@H](CC2=O)C3(C)C)N=C(c2ccccc2)c2ccccc21` [Example 21, (1S-(1.ALPHA.(R*), 4.ALPHA.))-N-(2,3-DIHYDRO-1-METHYL-2-OXO-5-PHENYL-1H-1,4-BENZODIAZEPIN-3-YL)-7,7-DIMETHYL-2-OXO-BICYCLO(2.2.1)HEPTANE-1-METHANESULFONAMIDE], the inhibition at 10 µM was 15%.
As for `CN1C(=O)[C@@H](NC(=O)CC2C(=O)C3(C)CCC2C3(C)C)N=C(c2ccccc2)c2ccccc21` (single isomer, unassigned) [Example 18], the inhibition at 10 µM is 39%.
For `CN1C(=O)[C@@H](NS(=O)(=O)C[C@@]23CC[C@@H](CC2=O)C3(C)C)N=C(c2ccccc2)c2ccccc21` [Example 14, (1R-(1.ALPHA.(R*),4.ALPHA.))-N-(2,3-DIHYDRO-1-METHYL-2-OXO-5-PHENYL-1H-1,4- BENZODIAZEPIN-3-YL)-7,7-DIMETHYL-2-OXO-BICYCLO(2.2.1)HEPTANE-1-METHANESULFONAMIDE], the inhibition at 10 µM was determined as 52%.
On the same count and under the same terms, to `CCOC(=O)[C@@H](NC(=O)NC1N=C(c2ccccc2)c2ccccc2N(C)C1=O)c1ccccc1` (single isomer, unassigned) [Example 11, ALPHA.-((((2,3-DIHYDRO-1-METHYL-2-OXO-5-PHENYL-1H-1,4-BENZODIAZEPIN-3-YL)AMINO)CARBONYL)AMINO)BEN[…] ETHYL ESTER, ALPHA ISOMER] belongs 46%.
On the same count and under the same terms, to `CN1C(=O)[C@@H](NC(=O)CC2C3CCC(C)(C2O)C3(C)C)N=C(c2ccccc2)c2ccccc21` (single isomer, unassigned) [Example 22A] belongs 50%; to `CN1C(=O)[C@H](NC(=O)CC2C(=O)C3(C)CCC2C3(C)C)N=C(c2ccccc2)c2ccccc21` (single isomer, unassigned) [Example 19], 82%.
Turning to `CN1C(=O)[C@H](NC(=O)C2C(=O)C3(C)CCC2C3(C)C)N=C(c2ccccc2)c2ccccc21` (stereo partly drawn) [Example 23, [3(R)-N-(2,3-DIHYDRO-1-METHYL-2-OXO-5-PHENYL-1H-1,4-BENZODIAZEPIN-3-YL)]-2- OXO-1,7,7-TRIMETHYLBICYCLO(2.2.1)HEPTANE-3-CARBOXAMIDE], the inhibition at 10 µM turned out to be 85%.
Take `CN1C(=O)[C@H](NS(=O)(=O)C[C@]23CC[C@H](CC2=O)C3(C)C)N=C(c2ccccc2)c2ccccc21` [Example 20, (1S-(1.ALPHA.(S*),4.ALPHA.))-N-(2,3-DIHYDRO-1-METHYL-2-OXO-5-PHENYL-1H-1,4- BENZODIAZEPIN-3-YL)-7,7-DIMETHYL-2-OXO-BICYCLO(2.2.1)HEPTANE-1-METHANESULFONAMIDE]: the inhibition at 10 µM stood at 80%.

Still in this test, the particulars now being: read-out: [^3 H]OT(uterus) IC50; inhibition of [^3H]oxytocin binding, rat uterus membranes.
Turning to `CN1C(=O)C(NS(=O)(=O)CC23CCC(CC2O)C3(C)C)N=C(c2ccccc2)c2ccccc21` (single isomer, unassigned) [Example 16B, N-(2,3-DIHYDRO-1-METHYL-2-OXO-5-PHENYL-1H-1,4-BENZODIAZEPIN-3-YL)-2-HYDROXY-7,7-DIMETHYL-BICYCLO(2.2.1) HEPTANE-1-METHANESULFONAMIDE, ISOMER A AND ISOMER B], the IC50 worked out at 1 µM.
